Source: patent US20210121456A1, “USE OF METHYLNALTREXONE TO ATTENUATE TUMOR PROGRESSION” (Salix Pharmaceuticals, Inc., priority 2014, published 2021)

Key:
[1] = test system: subjects with advanced medical illness and opioid-induced constipation; experiment: Study 2: double-blind, randomized, placebo-controlled study of subcutaneous MNTX (fixed dose); assay type: in vivo, human
Experimental: A double-blind, randomized, placebo-controlled study of subcutaneous MNTX was conducted in subjects with advanced medical illness and a current history of opioid-induced constipation. To satisfy eligibility criteria for enrollment, subjects were required to be on stable doses of laxatives and opioid analgesics. In the context of the study, a stable dose of opioid analgesics was defined as no reduction in the dose of opioid analgesic of ≥50% for at least three days before the first dose of MNTX. A stable dose of laxatives was defined as having a standing laxative order (and not PRN, or as-needed) for at least three days before the first dose of MNTX. A diagnosis of constipation was provided if the subject had (a) fewer than 3 bowel movements during the previous week by history and no clinically notable laxation in the 24 hours before the first dose of MNTX, or (b) no clinical notable laxation in the 48 hours before the first dose of MNTX.
Eligible subjects were randomized to receive MNTX or placebo every other day during a 14-day, double-blind period. Subjects weighing 38 kg to <62 kg received 0.4 mL SC MNTX (8 mg) or equal volume of placebo. Subjects weighing ≥62 kg received 0.6 mL SC MNTX (12 mg) or equal volume of placebo. Injections were administered subcutaneously in either the shoulder area, buttocks, abdomen, thighs or extremities, and rescue-laxatives, enemas or manual disimpactions were not administered within 4 hours before or after each dose of test article.
The endpoint assessed was the proportion of subjects with rescue-free laxation response within 4 hours after at least two of the first four doses. Two hundred and twenty-nine (229) subjects were enrolled and evaluated, including 151 patients with advanced cancers and 78 patients with other advanced illness (e.g., cardiovascular, pulmonary or neurologic disorders). Of which 229 subjects which enrolled, 113 were randomized to the placebo group and 116 were randomized to the MNTX treatment group. Of the patients who completed the double-blind phase, 142 (placebo 69, MNTX 73) elected to proceed with a 10-week open label phase of subcutaneous MNTX at PRN dosing.

Lewis lung cancer model = details: infusion of MNTX; cited from earlier work

SMILES: C[N@+]1(CC2CC2)CC[C@]23c4c5ccc(O)c4O[C@H]2C(=O)CC[C@@]3(O)[C@H]1C5.[Br-] [MNTX, (R)—N-(cyclopropylmethyl) noroxymorphone methobromide]
- subjects with rescue-free laxation response within 4 hours after at least 2 of the first 4 doses ([1]; ITT population, first week, 8 or 12 mg SC QOD): 62.9%
- number of rescue-free laxations within 24 hour post dosing per week ([1]; Week 1): 4.9
- number of total laxations within 24 hour post dosing per week ([1]; Week 1): 4.9
- number of rescue-free laxations within 24 hour post dosing per week ([1]; Week 2): 3.2
- number of total laxations within 24 hour post dosing per week ([1]; Week 2): 3.2
- improvement in the stool symptoms domain of the PAC-SYM ([1]; compared with the placebo group, p=0.0920): more pronounced
- subjects who used enemas ([1]; double-blind period): 17%
- subjects who used rescue laxatives ([1]; double-blind period): 27%
- subjects who required manual disimpaction ([1]; double-blind period, either group): < 5%
- opioid use ([1]; effect of MNTX administration): not affected
- efficacy versus placebo for the primary and all secondary efficacy endpoints ([1]; fixed doses 8 mg or 12 mg SC QOD): statistically superior to placebo
- median time to first rescue-free laxation after the first dose ([1]; in vivo): 0.8 h
- subjects with rescue-free laxation within 4 hours after at least 4 of the maximum 7 doses ([1]; in vivo): 62.2%
- subjects with rescue-free laxation within 4 hours of the first dose ([1]; in vivo): 69.8%
- tumor growth and metastasis (Lewis lung cancer model): dramatically reduced growth and metastasis
